Assay results published in PubChem BioAssay (NCI).
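The compound was tested at five concentrations on cells cultured in 96-well plates, with a 48-hour exposure period. At the GI50, growth is halved. Definition used: TGI = concentration required for complete inhibition of growth.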

Legend:
Assay in all cases: NCI-60 cell line screen, 48 h
[1] = test system: NCI-H23 lung
[2] = test system: HT29 colon
[3] = test system: MOLT-4 leukemia
[4] = test system: HL-60(TB) leukemia
[5] = test system: HCT-116 colon
[6] = test system: SR leukemia
[7] = test system: ACHN renal
[8] = test system: HCT-15 colon
[9] = test system: RXF 393 renal
[10] = test system: UO-31 renal

SMILES | TGI [1] [µM] | TGI [2] [µM] | TGI [3] [µM] | TGI [4] [µM] | TGI [5] [µM] | TGI [6] [µM] | TGI [7] [µM] | TGI [8] [µM] | TGI [9] [µM] | TGI [10] [µM] | GI50 [10] [µM] | GI50 [4] [µM] | GI50 [5] [µM] | GI50 [6] [µM] | GI50 [7] [µM] | GI50 [8] [µM] | GI50 [9] [µM] | GI50 [1] [µM] | GI50 [2] [µM] | GI50 [3] [µM]
O=C(/C=C/c1ccc(OCCCOc2ccc(/C=C/C(=O)c3ccc(Cl)cc3)cc2)cc1)c1ccc(Cl)cc1 | > 100 | > 100 | > 100 | > 100 | > 100 | > 100 | > 100 | > 100 | > 100 | – | – | – | – | – | – | – | – | – | – | –
NC(=O)COc1ccc(Br)cc1Br | > 100 | > 100 | > 100 | > 100 | > 100 | > 100 | > 100 | > 100 | – | > 100 | – | – | – | – | – | – | – | – | – | –
Cc1c(-c2ccnc(N)n2)c2c(n1-c1ccccc1)C(=O)c1ccccc1C2=O | – | – | – | 30.4 | > 100 | 3.84 | 77.7 | > 100 | 56.5 | 51.1 | 13.5 | 7.83 | 14.3 | 1.01 | 19.6 | 16 | 22.1 | – | – | –
COc1ccc(OC)c(/C=C/C(=O)c2ccc(SC)cc2)c1 | 7.6 | > 100 | > 100 | 12.6 | 7.77 | – | 38.4 | 36.6 | 37.3 | 30.7 | 15.5 | 3.65 | 2.57 | – | 17.2 | 13.8 | 16.2 | 2.77 | 3.89 | 3.26
C/C(CC(=O)Nc1cc(Cl)c(Cl)cc1Cl)=N\NS(=O)(=O)c1ccc(C)cc1 | 54.6 | > 100 | > 100 | 62.9 | 59.6 | – | 79.8 | – | 82.7 | 52.3 | – | – | – | – | – | – | – | – | – | –
Cc1nc(=O)n2c(c1C(=O)Nc1ccc(Cl)cc1)NCCC2 | > 100 | > 100 | > 100 | > 100 | > 100 | > 100 | > 100 | > 100 | > 100 | – | – | – | – | – | – | – | – | – | – | –
COc1ccc(C(=O)C(CN(C)C)c2ccccc2)cc1 (configuration not stated) | 3.32 | 21.4 | > 100 | > 100 | 1.95 | – | 4.95 | 4.73 | 3.1 | 2.74 | 1.43 | 5.54 | 0.707 | – | 2.11 | 1.81 | 1.32 | 1.56 | 3.8 | 4.41
CC(C(=O)C(C)O[Si](c1ccccc1)(c1ccccc1)C(C)(C)C)=P(c1ccccc1)(c1ccccc1)c1ccccc1 (configuration not stated) | 15.5 | 11.5 | 13.5 | 4.24 | 10.6 | – | 14.6 | 18.8 | – | 17.2 | – | – | – | – | – | – | – | – | – | –
COc1cccc(C2N3CCCCC3[C@@H]3c4[nH]c5ccccc5c4CCN23)c1OC (some centres not stated) | 30.6 | 25.5 | 36.6 | 31.7 | 31.1 | – | 28.6 | 30.8 | 27.9 | 28.1 | – | – | – | – | – | – | – | – | – | –
COC(=O)C([O][Ge]([CH3])([CH3])[CH3])c1ccccc1 (configuration not stated) | > 100 | > 100 | > 100 | > 100 | > 100 | – | > 100 | > 100 | – | > 100 | > 100 | 90.8 | > 100 | – | > 100 | > 100 | – | > 100 | > 100 | > 100
O=C1/C(=C/c2ccc(Cl)cc2)COc2ccc(Br)cc21 | > 100 | > 100 | > 100 | > 100 | > 100 | – | > 100 | – | > 100 | > 100 | – | – | – | – | – | – | – | – | – | –
C=C(C)[C@@H]1CC[C@@H]2C(=CC[C@]3(C)C([C@H](C)CC/C=C(/C)C(=O)O)CC[C@@]23C)[C@@]1(C)CCC(=O)O (some centres not stated) | 57.2 | 48.4 | – | 72.5 | 43.7 | 49.4 | 36.7 | 44.4 | 35.1 | 30.7 | – | – | – | – | – | – | – | – | – | –
Cc1ccc(/C=C2\CN(C(=O)CCN3CCC(=NO)CC3)C/C(=C\c3ccc(C)cc3)C2=O)cc1 | – | – | – | 4.6 | 1.28 | – | 2.83 | – | 3.05 | 2.73 | 1.42 | 1.69 | 0.363 | – | 1.4 | – | 1.64 | – | – | –
c1cc[c]([Sn]([O]c2cccc3cccnc23)([c]2ccccc2)[c]2ccccc2)cc1 | 0.0397 | 0.095 | 0.0402 | – | 0.0198 | – | 0.0332 | 0.0285 | 0.0333 | 0.0301 | 0.0163 | – | < 0.01 | – | 0.0168 | 0.0139 | 0.0154 | 0.0158 | 0.0311 | 0.0102
COc1ccccc1NC(=O)NS(=O)(=O)c1ccccc1 | > 100 | > 100 | – | > 100 | > 100 | – | > 100 | – | 98.2 | > 100 | – | – | – | – | – | – | – | – | – | –
CCN(CC)Cc1cc(Nc2c3ccc(Cl)cc3nc3c(C)cccc23)ccc1O | 3.22 | 2.42 | 10.9 | 5.24 | 2.21 | – | 2.24 | 2.87 | 2.63 | 2.27 | 1.06 | 2.42 | 0.982 | – | 1.04 | 1.15 | 1.3 | 1.65 | 0.888 | 0.855
COC(=O)CCCCCCCCC(=O)c1c(C)[nH]c(/C=C2\N=C(c3ccc[nH]3)C=C2OC)c1C | > 100 | > 100 | > 43.6 | 16.6 | > 56 | – | > 72.7 | > 57.7 | > 100 | > 73.6 | 30.5 | 2.86 | 8.09 | – | 20.6 | 22.1 | 31.3 | > 100 | 32.4 | 0.755
COc1cc2ccc(C(=O)O)cc2cc1OC | > 100 | > 100 | > 100 | – | > 100 | – | > 100 | > 100 | > 100 | > 100 | – | – | – | – | – | – | – | – | – | –
